These results are taken from patent US20230295200A1 (REGENTS OF THE UNIVERSITY OF MICHIGAN, priority 2022, published 2023).

Test [1] deals with T1, STAT6 protein (Homo sapiens, UniProt P42226).
T1 sequence (P42226 1-847): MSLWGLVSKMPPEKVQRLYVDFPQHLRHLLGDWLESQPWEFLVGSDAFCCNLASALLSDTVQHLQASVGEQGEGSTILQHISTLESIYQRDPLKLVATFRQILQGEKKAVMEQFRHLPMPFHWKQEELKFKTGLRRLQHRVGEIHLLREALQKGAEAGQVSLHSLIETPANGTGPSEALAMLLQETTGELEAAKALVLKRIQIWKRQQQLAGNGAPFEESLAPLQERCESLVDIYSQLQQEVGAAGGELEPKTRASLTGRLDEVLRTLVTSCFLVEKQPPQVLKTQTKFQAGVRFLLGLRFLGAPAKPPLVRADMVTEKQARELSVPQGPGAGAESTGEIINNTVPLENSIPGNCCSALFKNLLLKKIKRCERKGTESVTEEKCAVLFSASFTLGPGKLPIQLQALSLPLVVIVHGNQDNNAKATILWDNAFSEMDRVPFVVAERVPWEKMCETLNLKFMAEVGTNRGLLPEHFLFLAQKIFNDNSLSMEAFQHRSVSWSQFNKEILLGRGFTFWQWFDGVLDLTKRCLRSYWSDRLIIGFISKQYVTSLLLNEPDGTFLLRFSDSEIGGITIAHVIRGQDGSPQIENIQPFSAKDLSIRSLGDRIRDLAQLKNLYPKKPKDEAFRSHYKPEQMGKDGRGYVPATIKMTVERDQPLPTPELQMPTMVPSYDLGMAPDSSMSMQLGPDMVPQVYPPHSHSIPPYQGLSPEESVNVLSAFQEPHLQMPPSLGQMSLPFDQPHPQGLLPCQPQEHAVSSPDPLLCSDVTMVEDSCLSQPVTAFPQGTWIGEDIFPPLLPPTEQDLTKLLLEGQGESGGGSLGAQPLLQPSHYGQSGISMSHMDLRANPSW
As to the kind of experiment: Fluorescence polarization (FP) binding assay, STAT6. To be noted: FP competition, 5 nM fluorescein-labeled tracer, 200 nM protein, PBS pH7.4; read-out: Binding STAT6. A digest of the protocol: (§1)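 Tracer (fluorescein-labeled, 5 nM) was mixed with 200 nM STAT5 and/or STAT6 in PBS pH 7.4 plus 0.01% BGG, 0.01% Tween-20, 2 mM DTT. After 15 min shaking and 1 h at room temperature to equilibrium, polarization was measured and constants derived by nonlinear fitting.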
Background: In fluorescence polarisation assays a small probe gives low polarisation when free and higher when bound to something large.

Test [2] has as its target T2, STAT5A (Homo sapiens, UniProt P42229).
T2 sequence (P42229 1-794): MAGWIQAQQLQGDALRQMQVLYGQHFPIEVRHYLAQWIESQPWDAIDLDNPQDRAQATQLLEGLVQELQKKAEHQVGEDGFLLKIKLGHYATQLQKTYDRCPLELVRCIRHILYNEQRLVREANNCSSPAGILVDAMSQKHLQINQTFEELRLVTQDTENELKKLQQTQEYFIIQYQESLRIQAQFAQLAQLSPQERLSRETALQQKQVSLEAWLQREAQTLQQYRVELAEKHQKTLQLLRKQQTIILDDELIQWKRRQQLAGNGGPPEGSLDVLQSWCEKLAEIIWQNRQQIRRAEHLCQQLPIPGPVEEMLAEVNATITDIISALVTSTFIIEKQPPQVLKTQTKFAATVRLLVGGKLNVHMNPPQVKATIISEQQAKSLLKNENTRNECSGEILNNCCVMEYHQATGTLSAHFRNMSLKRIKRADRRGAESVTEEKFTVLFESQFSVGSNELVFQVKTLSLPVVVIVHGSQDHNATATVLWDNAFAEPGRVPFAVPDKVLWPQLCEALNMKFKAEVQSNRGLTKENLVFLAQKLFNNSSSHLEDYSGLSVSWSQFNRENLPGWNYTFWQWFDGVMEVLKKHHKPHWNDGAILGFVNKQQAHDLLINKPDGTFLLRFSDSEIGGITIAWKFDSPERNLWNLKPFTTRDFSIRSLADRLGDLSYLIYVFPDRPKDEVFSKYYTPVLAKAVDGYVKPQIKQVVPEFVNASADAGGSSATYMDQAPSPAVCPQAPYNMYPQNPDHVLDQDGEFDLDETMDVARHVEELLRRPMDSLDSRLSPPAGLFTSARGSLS
As to the kind of experiment: Fluorescence polarization (FP) binding assay, STAT5A. To be noted: FP competition, 5 nM fluorescein-labeled tracer, 200 nM protein, PBS pH7.4. In a few lines: as §1

Each structure is given as a SMILES string.

With `CC(C)(C)[C@H](NC(=O)c1cc2cc(C(F)(F)P(=O)(O)O)ccc2s1)C(=O)N1CCCCC[C@H]1C(=O)N1Cc2ccccc2C1` [Compound 187, (difluoro(2-(((S)-1-((S)-2-(isoindoline-2-carbonyl)azepan-1-yl)-3,3-dimethyl-1-oxobutan-2-yl)carbamoyl)benzo[b]thiophen-5-yl)methyl)phosphonic acid], the Ki in test [1] is 1000 to 10000 nM; in test [2], greater than 10000 nM.
For `CC(C)(C)[C@H](NC(=O)c1cc2cc(C(F)(F)P(=O)(O)O)ccc2s1)C(=O)N1CCCCC[C@H]1C(=O)Nc1ncc(-c2ccccc2)s1` [Compound 188, ((2-(((S)-3,3-dimethyl-1-oxo-1-((S)-2-((5-phenylthiazol-2-yl)carbamoyl)azepan-1-yl)butan-2-yl)carbamoyl)benzo[b]thiophen-5-yl)difluoromethyl)phosphonic acid], the Ki in test [1] lay in the range of 1000 to 10000 nM; in test [2], 100 to 1000 nM.
As for `CC(C)(C)[C@H](NC(=O)c1cc2cc(C(F)(F)P(=O)(O)O)ccc2s1)C(=O)N1Cc2ccccc2CC1C(=O)N1CCO[C@H](c2ccccc2)C1` (stereo partly drawn) [Compound 189, ((2-(((2S)-3,3-dimethyl-1-oxo-1-(3-((R)-2-phenylmorpholine-4-carbonyl)-3,4-dihydroisoquinolin-2(1H)-yl)butan-2-yl)carbamoyl)benzo[b]thiophen-5-yl)difluoromethyl)phosphonic acid], the Ki in test [1] was in the range of 100 to 1000 nM; in test [2], 1000 to 10000 nM.
The corresponding values for `CC(C)(C)[C@H](NC(=O)c1cc2cc(C(F)(F)P(=O)(O)O)ccc2s1)C(=O)N1Cc2ccccc2CC1C(=O)N1CCC[C@H](c2ccccc2)C1` (stereo partly drawn) [Compound 190, ((2-(((2S)-3,3-dimethyl-1-oxo-1-(3-((R)-3-phenylpiperidine-1-carbonyl)-3,4-dihydroisoquinolin-2(1H)-yl)butan-2-yl)carbamoyl)benzo[b]thiophen-5-yl)difluoromethyl)phosphonic acid] are 100 to 1000 nM and 1000 to 10000 nM.
With `CC(C)(C)[C@H](NC(=O)c1cc2cc(C(F)(F)P(=O)(O)O)ccc2s1)C(=O)N1Cc2ccccc2CC1C(=O)N1CC[C@H](c2ccccc2)C1` (stereo partly drawn) [Compound 191, ((2-(((2S)-3,3-dimethyl-1-oxo-1-(3-((R)-3-phenylpyrrolidine-1-carbonyl)-3,4-dihydroisoquinolin-2(1H)-yl)butan-2-yl)carbamoyl)benzo[b]thiophen-5-yl)difluoromethyl)phosphonic acid], the figures for the Ki in test [1] and in test [2] were 1000 to 10000 nM and greater than 10000 nM, respectively.
Take `CC(C)(C)[C@H](NC(=O)c1cc2cc(C(F)(F)P(=O)(O)O)ccc2s1)C(=O)N1Cc2ccccc2CC1C(=O)N1CC[C@@H](c2ccccc2)C1` (stereo partly drawn) [Compound 192, ((2-(((2S)-3,3-dimethyl-1-oxo-1-(3-((S)-3-phenylpyrrolidine-1-carbonyl)-3,4-dihydroisoquinolin-2(1H)-yl)butan-2-yl)carbamoyl)benzo[b]thiophen-5-yl)difluoromethyl)phosphonic acid]: the Ki in test [1] and in test [2] was greater than 10000 nM throughout.
On to `CC(C)(C)[C@H](NC(=O)c1cc2cc(C(F)(F)P(=O)(O)O)ccc2s1)C(=O)N1Cc2ccccc2CC1C(=O)N1Cc2ccccc2C1` (stereo partly drawn) [Compound 193, (difluoro(2-(((2S)-1-(3-(isoindoline-2-carbonyl)-3,4-dihydroisoquinolin-2(1H)-yl)-3,3-dimethyl-1-oxobutan-2-yl)carbamoyl)benzo[b]thiophen-5-yl)methyl)phosphonic acid], for which the Ki in test [1] and in test [2] was greater than 10000 nM throughout.
`CC(C)(C)[C@H](NC(=O)c1cc2cc(C(F)(F)P(=O)(O)O)ccc2s1)C(=O)N1Cc2ccccc2CC1C(=O)Nc1ncc(-c2ccccc2)s1` (stereo partly drawn) [Compound 194, ((2-(((2S)-3,3-dimethyl-1-oxo-1-(3-((5-phenylthiazol-2-yl)carbamoyl)-3,4-dihydroisoquinolin-2(1H)-yl)butan-2-yl)carbamoyl)benzo[b]thiophen-5-yl)difluoromethyl)phosphonic acid]: the Ki in test [1] lay within 1000 to 10000 nM; in test [2], 100 to 1000 nM.
The corresponding values for `CC(C)(C)[C@H](NC(=O)c1cc2cc(C(F)(F)P(=O)(O)O)ccc2s1)C(=O)N1Cc2ccccc2[C@H]1C(=O)N1CCO[C@H](c2ccccc2)C1` [Compound 195, ((2-(((S)-3,3-dimethyl-1-oxo-1-((S)-1-((R)-2-phenylmorpholine-4-carbonyl)isoindolin-2-yl)butan-2-yl)carbamoyl)benzo[b]thiophen-5-yl)difluoromethyl)phosphonic acid] are less than 100 nM and 1000 to 10000 nM.
As for `CC(C)(C)[C@H](NC(=O)c1cc2cc(C(F)(F)P(=O)(O)O)ccc2s1)C(=O)N1Cc2ccccc2[C@H]1C(=O)N1CCC[C@H](c2ccccc2)C1` [Compound 196, ((2-(((S)-3,3-dimethyl-1-oxo-1-((S)-1-((R)-3-phenylpiperidine-1-carbonyl)isoindolin-2-yl)butan-2-yl)carbamoyl)benzo[b]thiophen-5-yl)difluoromethyl)phosphonic acid], the Ki in test [1] is less than 100 nM; in test [2], 1000 to 10000 nM.
Take `CC(C)(C)[C@H](NC(=O)c1cc2cc(C(F)(F)P(=O)(O)O)ccc2s1)C(=O)N1Cc2ccccc2[C@H]1C(=O)N1CC[C@H](c2ccccc2)C1` [Compound 197, ((2-(((S)-3,3-dimethyl-1-oxo-1-((S)-1-((R)-3-phenylpyrrolidine-1-carbonyl)isoindolin-2-yl)butan-2-yl)carbamoyl)benzo[b]thiophen-5-yl)difluoromethyl)phosphonic acid]: the Ki is 1000 to 10000 nM in test [1] and greater than 10000 nM in test [2].
On the same counts, the results for `CC(C)(C)[C@H](NC(=O)c1cc2cc(C(F)(F)P(=O)(O)O)ccc2s1)C(=O)N1Cc2ccccc2[C@H]1C(=O)N1CC[C@@H](c2ccccc2)C1` [Compound 198, ((2-(((S)-3,3-dimethyl-1-oxo-1-((S)-1-((S)-3-phenylpyrrolidine-1-carbonyl)isoindolin-2-yl)butan-2-yl)carbamoyl)benzo[b]thiophen-5-yl)difluoromethyl)phosphonic acid] are 100 to 1000 nM and 1000 to 10000 nM.
On to `CC(C)(C)[C@H](NC(=O)c1cc2cc(C(F)(F)P(=O)(O)O)ccc2s1)C(=O)N1Cc2ccccc2[C@H]1C(=O)N1Cc2ccccc2C1` [Compound 199, (difluoro(2-(((S)-1-((S)-1-(isoindoline-2-carbonyl)isoindolin-2-yl)-3,3-dimethyl-1-oxobutan-2-yl)carbamoyl)benzo[b]thiophen-5-yl)methyl)phosphonic acid], for which the Ki is 1000 to 10000 nM in test [1] and greater than 10000 nM in test [2].
For the molecule `CC(C)(C)[C@H](NC(=O)c1cc2cc(C(F)(F)P(=O)(O)O)ccc2s1)C(=O)N1Cc2ccccc2[C@H]1C(=O)Nc1ncc(-c2ccccc2)s1` [Compound 200, ((2-(((S)-3,3-dimethyl-1-oxo-1-((S)-1-((5-phenylthiazol-2-yl)carbamoyl)isoindolin-2-yl)butan-2-yl)carbamoyl)benzo[b]thiophen-5-yl)difluoromethyl)phosphonic acid], the Ki lay in the range of 1000 to 10000 nM in test [1] and 100 to 1000 nM in test [2].
